{"source": "patent US20220401404A1", "about": "“Co-Administration Therapy to Prevent Neurodegeneration and Enhance Neuroprotection” (THE REGENTS OF THE UNIVERSITY OF CALIFORNIA, priority 2019, published 2022)", "molecules": {"B1": {"name": "recombinant hCES1b (Homo sapiens) (protein)", "chain": "GHPSSPPVVDTVHGKVLGKFVSLEGFAQPVAIFLGIPFAKPPLGPLRFTPPQPAEPWSFVKNATSYPPMCTQDPKAGQLLSELFTNRKENIPLKLSEDCLYLNIYTPADLTKKNRLPVMVWIHGGGLMVGAASTYDGLALAAHENVVVVTIQYRLGIWGFFSTGDEHSRGNWGHLDQVAALRWVQDNIASFGGNPGSVTIFGESAGGESVSVLVLSPLAKNLFHRAISESGVALTSVLVKKGDVKPLAEQIAITAGCKTTTSAVMVHCLRQKTEEELLETTLKMKFLSLDLQGDPRESQPLLGTVIDGMLLLKTPEELQAERNFHTVPYMVGINKQEFGWLIPMQLMSYPLSEGQLDQKTAMSLLWKSYPLVCIAKELIPEATEKYLGGTDDTVKKKDLFLDLIADVMFGVPSVIVARNHRDAGAPTYMYEFQYRPSFSSDMKPKTVIGDHGDELFSVFGAPFLKEGASEEEIRLSKMVMKFWANFARNGNPNGEGLPHWPEYNQKEGYLQIGANTQAAQKLKDKEVAFWTNLFAKKAVEKPPQTEHIEL"}}, "key": {"[1]": {"biological_target": "pooled human liver microsomes (HLM)", "assay": "Inhibition of fenofibrate hydrolysis in pooled human liver microsomes (Ki)", "type": "in vitro ADME", "conditions": "matrix HLM, substrate fenofibrate", "method": "(§1) FIGS. 6A-6D. […] The reaction was stopped, supernatant collected and fenofibric acid level was determined by LC-MS/MS. Ki values were calculated, and the type of inhibition was determined by fitting data to enzyme inhibition models: competitive (FIG. 6A), non-competitive (FIG. 6B), uncompetitive (FIG. 6C) and mixed (FIG. 6D) models. The samples were analyzed in duplicates and represented as mean values.\n(§2) Incubation mixtures containing 100 mM Tris-Cl buffer (pH 7.4), recombinant hCES1b (0.05 mg/mL) or pooled human liver microsomes (1 mg/mL) and 8 concentrations of kaempferol or a positive control inhibitor (bis(4-nitrophenyl)-phosphate, BNP) were pre-incubated for 2 minutes at 37° C. […] The reactions were stopped by the addition of a stop solution containing an internal standard. Samples were centrifuged to precipitate protein and the supernatant was collected for LC-MS/MS analysis. The fenofibric acid was quantified using standard curves. The Ki values were calculated, and the type of inhibition was determined by fitting data to specific enzyme inhibition models (Table 2)."}, "recombinant hCES1b": {"biological_target": "T1, recombinant hCES1b (Homo sapiens, UniProt P23141)", "T1 sequence (P23141 18-567)": "B1 chain", "assay": "Inhibition of hCES1b-mediated fenofibrate hydrolysis (Ki)", "type": "biochemical", "conditions": "matrix hCES1b, substrate fenofibrate", "method": "as §1, with “5A-5D.” for “6A-6D.”, “Reaction” for “The reaction”, “5A),” for “6A),”, “5B),” for “6B),”, “5C)” for “6C)”, “5D)” for “6D)”\nas §2"}, "BV2 cells": {"system": "BV2 cells", "assay": "LPS-induced IL-1β and PGC-1α gene expression in BV2 cells (qRT-PCR)", "type": "cell-based", "conditions": "for reduction of LPS-induced IL-1β expression: then 0.1 ng/ml LPS 1 hour", "source_text": "FIG. 4. […] Then total RNA was isolated for IL-1β gene qRT-PCR analysis.\nFIGS. 7A and 7B. […] Cell lysates were collected, and RNA was isolated for IL-1β (FIG. 7A) and PGC-1α (FIG. 7B) gene expression by RT-PCR.\nTotal BV2 cell RNA was extracted for IL-1β gene expression via qRT-PCR analysis.\nCell lysates were collected for determination of IL-1β and PGC-1α gene expression via qRT-PCR."}, "[2]": {"assay": "Hydrolysis of fenofibrate to fenofibric acid by pooled human liver microsomes (Km, Vmax)", "conditions": "pH 7.4", "method": "FIGS. 8A and 8B. […] Reaction was stopped, supernatant collected and fenofibric acid level was determined by LC-MS/MS. […] The samples were analyzed in duplicates and represented as mean values.\nThe reactions were stopped by the addition of a stop solution containing an internal standard."}, "[3]": {"system": "primary astrocytes derived from PGC-1α WT (PGC-1α+/+) mice", "assay": "LPS-induced inflammation in primary astrocytes from PGC-1α WT mice (RT-PCR gene expression)", "type": "cell-based, mouse", "conditions": "fenofibrate 20 μM overnight, then LPS 1 hour", "method": "(§3) Total RNA was isolated and IL-1β (A, D), TNF-α (B, E) and PGC-1α (C, F) gene expression were determined by RT-PCR.\n(§4) Primary astrocytes from postnatal heterozygous mice were isolated and cultured and wild type mice were obtained by breeding these heterozygous knockout mice. […] Total RNA was isolated, and gene expression of pro-inflammatory cytokines, IL-1β and TNF-α, was determined by RT-PCR."}, "[4]": {"system": "primary astrocytes derived from PGC-1α heterozygous KO (PGC-1α+/−) mice", "assay": "LPS-induced inflammation in primary astrocytes from PGC-1α heterozygous KO mice (RT-PCR gene expression)", "type": "cell-based, mouse", "method": "as §3, §4"}, "[5]": {"substrate": "CC(C)OC(=O)C(C)(C)Oc1ccc(C(=O)c2ccc(Cl)cc2)cc1", "assay": "cells, lysate or membranes named", "type": "biochemical, human", "conditions": "other: matrix hCES1b 0.05 mg/mL, product fenofibric acid, pH 7.4, 37° C.", "procedure": "Reaction was stopped, supernatant collected and fenofibric acid level was determined by LC-MS/MS. Standard curve was plotted and the Km and Vmax values were calculated. The samples were analyzed in duplicates and represented as mean values.\nAssay procedure: Incubation mixtures containing 100 mM Tris-Cl buffer (pH 7.4), and recombinant hCES1b (0.05 mg/mL) or pooled HLM (1 mg/mL) were warmed to 37° C. […] The reactions were stopped by the addition of a stop solution containing an internal standard. Samples were centrifuged to precipitate the protein while the supernatant was collected for determination of fenofibric acid using liquid chromatography-tandem mass spectrometry (LC-MS/MS) analysis. […] The Km and Vmax values were calculated by fitting data to enzyme kinetics models (Table 1)."}, "[6]": {"conditions": "read-out: Ki, Competitive inhibition model"}, "[7]": {"conditions": "read-out: Ki, Mixed inhibition model"}, "[8]": {"conditions": "read-out: Ki, Non-Competitive inhibition model"}, "[9]": {"conditions": "read-out: Ki, Uncompetitive inhibition model"}}, "note": "Several values for one entry are separate records, joined by “and”; a condition that tells them apart may be missing. Equal values may be shown once. Read-outs that look alike come from different tables or passages of the source."}
{"molecule": "O=[N+]([O-])c1ccc(OP(=O)(O)Oc2ccc([N+](=O)[O-])cc2)cc1", "note": "[BNP, bis(4-nitrophenyl)-phosphate]", "values": [{"measurement": "Ki", "setting": "[1]; [6]", "value": 1.67, "unit": "µM"}, {"measurement": "Ki", "setting": "[1]; [7]", "value": 1.66, "unit": "µM"}, {"measurement": "Ki", "setting": "[1]; [8]", "value": 5.17, "unit": "µM"}, {"measurement": "Ki", "setting": "[1]; [9]", "value": 3.02, "unit": "µM"}, {"measurement": "Ki", "setting": "recombinant hCES1b; [6]", "value": 0.044, "unit": "µM"}, {"measurement": "Ki", "setting": "recombinant hCES1b; [7]", "value": 0.044, "unit": "µM"}, {"measurement": "Ki", "setting": "recombinant hCES1b; [8]", "value": 0.17, "unit": "µM"}, {"measurement": "Ki", "setting": "recombinant hCES1b; [9]", "value": 0.096, "unit": "µM"}]}
{"molecule": "CC(C)OC(=O)C(C)(C)Oc1ccc(C(=O)c2ccc(Cl)cc2)cc1", "note": "[Fenofibrate]", "values": [{"measurement": "reduction of LPS-induced IL-1β expression", "setting": "BV2 cells; 20 μM, 18 hours", "value": "80% and 70%"}, {"measurement": "increase of PGC-1α expression", "setting": "BV2 cells; 20 μM, 18 hours, then LPS 1 hour", "value": 2, "unit": "fold"}, {"measurement": "Km at 10 min", "setting": "[2]", "value": 5.4, "unit": "µM"}, {"measurement": "reduction of LPS-induced IL-1β expression", "setting": "[3]", "value": 60, "unit": "%"}, {"measurement": "enhancement of PGC-1α expression", "setting": "[4]; fenofibrate 10 and 20 μM", "value": 1.5, "unit": "fold"}, {"measurement": "reduction of LPS-induced IL-1β expression", "setting": "[4]; fenofibrate overnight (5, 10, 20 μM tested; concentration not stated), then LPS 1 hour", "value": 55, "unit": "%"}]}
{"molecule": "O=c1c(O)c(-c2ccc(O)cc2)oc2cc(O)cc(O)c12", "note": "[Kaempferol, 3,5,7-trihydroxy-2-(4-hydroxyphenyl)-4H-1-benzopyran-4-one]", "values": [{"measurement": "reduction of LPS-induced IL-1β expression", "setting": "BV2 cells; 10 μM, 18 hours", "value": 60, "unit": "%"}, {"measurement": "reduction of LPS-induced IL-1β expression", "setting": "BV2 cells; 20 μM, 18 hours", "value": 85, "unit": "%"}, {"measurement": "effect on PGC-1α expression", "setting": "BV2 cells; kaempferol alone 10, 20 μM", "value": "did not enhance PGC-1α expression"}, {"measurement": "Ki", "setting": "[1]; [6]", "value": 110, "unit": "µM"}, {"measurement": "Ki", "setting": "[1]; [8]", "value": 235, "unit": "µM"}, {"measurement": "Ki", "setting": "[1]; [9]", "value": 131, "unit": "µM"}, {"measurement": "Ki", "setting": "recombinant hCES1b; [6]", "value": 36.2, "unit": "µM"}, {"measurement": "Ki", "setting": "recombinant hCES1b; [7]", "value": 101, "unit": "µM"}, {"measurement": "Ki", "setting": "recombinant hCES1b; [8]", "value": 101, "unit": "µM"}, {"measurement": "Ki", "setting": "recombinant hCES1b; [9]", "value": 64.7, "unit": "µM"}]}
{"molecule": "B1", "values": [{"measurement": "Km", "setting": "[5]", "value": 6.04, "unit": "µM"}, {"measurement": "Vmax", "setting": "[5]", "value": 0.0283, "unit": "µmol/min/mg"}]}
